# Experimental data: US20250231185A1, “Coronavirus T Cell Epitopes, Megapools and Uses Thereof” (La Jolla Institute for Immunology, priority 2021, published 2025)
# Test system: CD4+ T cells
# Assay: Meta-analysis of published SARS-CoV-2 CD4 T cell epitope data curated in the IEDB (25 studies)
# Assay type: cell-based, human
# Details: CD4R (D) Megapool, non-spike antigens; dominant = recognized in 3 or more donors/studies
row,Substance,Dominant
1,2329 (GMEVTPSGTWLTYTGAIKLD) [compound 2329],Yes (more dominant epitopes are defined by being recognized by 3 or more donors/different studies)
2,2332 (FKDQVILLNKHIDAY) [compound 2332],Yes (more dominant epitopes are defined by being recognized by 3 or more donors/different studies)
3,2301 (KEITVATSRTLSYYK) [compound 2301],Yes (more dominant epitopes are defined by being recognized by 3 or more donors/different studies)
4,2305 (SYYKLGASQRVAGDS) [compound 2305],Yes (more dominant epitopes are defined by being recognized by 3 or more donors/different studies)
5,2294 (SELVIGAVILRGHLR) [compound 2294],Yes (more dominant epitopes are defined by being recognized by 3 or more donors/different studies)
6,2345 (QEEVQELYSPIFLIV) [compound 2345],Yes (more dominant epitopes are defined by being recognized by 3 or more donors/different studies)
7,2300 (IKDLPKEITVATSRT) [compound 2300],Yes (more dominant epitopes are defined by being recognized by 3 or more donors/different studies)
8,2325 (LIRQGTDYKHWPQIA) [compound 2325],Yes (more dominant epitopes are defined by being recognized by 3 or more donors/different studies)
9,2318 (AGNGGDAALALLLLD) [compound 2318],Yes (more dominant epitopes are defined by being recognized by 3 or more donors/different studies)
10,2308 (ASWFTALTQHGKEDL) [compound 2308],Yes (more dominant epitopes are defined by being recognized by 3 or more donors/different studies)
11,2295 (GAVILRGHLRIAGHHLGR) [compound 2295],Yes (more dominant epitopes are defined by being recognized by 3 or more donors/different studies)
12,2303 (SRTLSYYKLGASQRV) [compound 2303],Yes (more dominant epitopes are defined by being recognized by 3 or more donors/different studies)
13,2319 (DAALALLLLDRLNQL) [compound 2319],Yes (more dominant epitopes are defined by being recognized by 3 or more donors/different studies)
14,2302 (TSRTLSYYKLGASQRVA) [compound 2302],Yes (more dominant epitopes are defined by being recognized by 3 or more donors/different studies)
15,2326 (YKHWPQIAQFAPSAS) [compound 2326],Yes (more dominant epitopes are defined by being recognized by 3 or more donors/different studies)
16,2289 (VLAAVYRINWITGGI) [compound 2289],Yes (more dominant epitopes are defined by being recognized by 3 or more donors/different studies)
17,2290 (YRINWITGGIAIAMA) [compound 2290],Yes (more dominant epitopes are defined by being recognized by 3 or more donors/different studies)
18,2321 (AAEASKKPRQKRTAT) [compound 2321],Yes (more dominant epitopes are defined by being recognized by 3 or more donors/different studies)
19,2327 (WPQIAQFAPSASAFF) [compound 2327],Yes (more dominant epitopes are defined by being recognized by 3 or more donors/different studies)
20,2314 (RWYFYYLGTGPEAGL) [compound 2314],Yes (more dominant epitopes are defined by being recognized by 3 or more donors/different studies)
21,2311 (IGYYRRATRRIRGGD) [compound 2311],Yes (more dominant epitopes are defined by being recognized by 3 or more donors/different studies)
22,2293 (TNILLNVPLHGTILT) [compound 2293],Yes (more dominant epitopes are defined by being recognized by 3 or more donors/different studies)

# Same assay, conditions: CD4RE megapool peptides (non-spike SARS-CoV-2 CD4 epitopes); dominant = recognized by 3 or more donors/different studies
row,Substance,Dominant
1,2640 (IGYYRRATRRIRGGD) [compound 2640],Yes (more dominant epitopes are defined by being recognized by 3 or more donors/different studies)
2,2645 (KDGIIWVATEGALNT) [compound 2645],Yes (more dominant epitopes are defined by being recognized by 3 or more donors/different studies)
3,2630 (KEITVATSRTLSYYK) [compound 2630],Yes (more dominant epitopes are defined by being recognized by 3 or more donors/different studies)
4,2637 (ASWFTALTQHGKEDL) [compound 2637],Yes (more dominant epitopes are defined by being recognized by 3 or more donors/different studies)
5,2652 (KRTATKAYNVTQAFG) [compound 2652],Yes (more dominant epitopes are defined by being recognized by 3 or more donors/different studies)
6,2646 (AIVLQLPQGTTLPKG) [compound 2646],Yes (more dominant epitopes are defined by being recognized by 3 or more donors/different studies)
7,2651 (KKPRQKRTATKAYNV) [compound 2651],Yes (more dominant epitopes are defined by being recognized by 3 or more donors/different studies)
8,2647 (AGNGGDAALALLLLD) [compound 2647],Yes (more dominant epitopes are defined by being recognized by 3 or more donors/different studies)
9,2643 (RWYFYYLGTGPEAGL) [compound 2643],Yes (more dominant epitopes are defined by being recognized by 3 or more donors/different studies)
10,2649 (LLLLDRLNQLESKMS) [compound 2649],Yes (more dominant epitopes are defined by being recognized by 3 or more donors/different studies)
11,2638 (SWFTALTQHGKEDLK) [compound 2638],Yes (more dominant epitopes are defined by being recognized by 3 or more donors/different studies)
12,2623 (SELVIGAVILRGHLR) [compound 2623],Yes (more dominant epitopes are defined by being recognized by 3 or more donors/different studies)
13,2624 (GAVILRGHLRIAGHHLGR) [compound 2624],Yes (more dominant epitopes are defined by being recognized by 3 or more donors/different studies)
14,2657 (ASAFFGMSRIGMEVT) [compound 2657],Yes (more dominant epitopes are defined by being recognized by 3 or more donors/different studies)
15,2620 (CLVGLMWLSYFIASF) [compound 2620],Yes (more dominant epitopes are defined by being recognized by 3 or more donors/different studies)
16,2617 (QFAYANRNRFLYIIK) [compound 2617],Yes (more dominant epitopes are defined by being recognized by 3 or more donors/different studies)
17,2636 (SGFAAYSRYRIGNYK) [compound 2636],Yes (more dominant epitopes are defined by being recognized by 3 or more donors/different studies)
18,2632 (SRTLSYYKLGASQRV) [compound 2632],Yes (more dominant epitopes are defined by being recognized by 3 or more donors/different studies)
